Source: patent US20030171371A1, “Immunosuppressant n-acyles homoserine lactones” (priority 2000, published 2003)

Columns and labels:
[1] = test system: TNF-alpha production from LPS-stimulated human PBMC; experiment: TNF-alpha production from LPS-stimulated human PBMC (sandwich ELISA); type: cell-based; conditions: FIG. 3, FIG. 5
Method: Bacterial lipopolysaccharide (LPS) stimulates the production of a variety of cytokines, including TNF-alpha, from human PBMC; these cytokines in turn influence the development of T cells, supporting a T helper 1 conducive milieu. Human PBMC prepared from whole blood by buoyant density centrifugation were resuspended in CTCM. […] Following incubation for 24 h at 37° C. in 5% CO2-air, the cell culture supernatants were collected and tested for TNF-alpha levels by ‘sandwich’ ELISA. Briefly, 96-well Nunc MaxiSorp (Life Technologies, Paisley, UK) plates were coated with 50 μl of a 2 μg/ml solution of mouse anti-human TNF-alpha monoclonal antibody (Pharmingen, UK) in 0.05 M carbonate/bicarbonate buffer, pH 9.6 overnight at 4° C. […] Following three washes with PBS-Tween, 50 μl of cell culture supernatants were added and incubated overnight at 4° C.; standard human TNF-alpha (Pharmingen, UK) ranging from 2000 to 31.25 pg/ml were included for each plate. […] Following four washes, the bound biotinylated antibody was detected with 50 μl of a 1:1,000 dilution of Streptavidin-peroxidase (Pharmingen, UK). At the end of an hour incubation at room temperature, the plates were thoroughly washed six times with PBS-Tween and the assay was developed by the addition of 100 μl of 0.1 mg/ml of tetramethyl benzidine subtrate (Sigma, Poole, UK) in 0.1 M sodium acetate buffer, pH 6 containing 0.03% H2O2. The enzyme reaction was stopped with 50 μl of 2.5 M H2SO4 after an incubation of 10 minutes at room temperature and the development was read at 450 nm with a spectrophotometric 96-well plate reader (Dynex).

[2] = test system: murine splenocytes; experiment: ConA mitogen-stimulated proliferation of murine splenocytes ([3H]-thymidine incorporation); type: cell-based, mouse (BALB/c); conditions: for effect on ConA induced splenocyte proliferation (cpm vs concentration): FIG. 1
Method: Proliferation was assessed by the incorporation of [^3H]-thymidine into DNA. Eight-week-old female BALB/c mice were obtained from Harlan (Bicester, Oxon, UK) and given food and water ad libitum. Splenocyte suspensions were prepared by removing the spleens and placing them into RPMI 1640 medium. The spleens were forced through 70-μm-pore-size wire gauzes using the plunger from a 5-ml syringe to produce a single cell suspension. […] Leucocytes were washed twice with RPMI 1640 medium with 2% (vol/vol) foetal calf serum (FCS) and resuspended in complete cell culture medium (CTCM) consisting of RPMI 1640 medium with 5% FCS, 2 mM L-glutamine, and 5×10^−5 M 2-mercaptoethanol. HSL compounds were tested at doubling down dilutions ranging from 1 mM to 0.1 μM in a final volume of 200 μl of CTCM, containing ConA (Sigma, Poole, UK) at 1 μg/ml and 100,000 spleen cells. Following incubation for 48 h at 37° C. in 5% CO2-air, 0.25 μCi [^3H]-thymidine (Amersham) in 10 μl volume made up in RPMI 1640 medium was added and the cells were incubated for a further 24 h. Cells were harvested onto fibreglass filters with a Packard filtermate harvester. After the addition of 25 μl of MicroScint-O (Packard) to each well the filters were counted with the Packard TopCount scintillation counter.
Mitogen (Concanavalin A) induced murine splenocyte proliferation was indicated by the incorporation of tritated thymidine into the DNA in the mouse spleen cells as shown by counts per minute using the scintillation counter. The inhibitory effect of an HSL compound being tested on cell proliferation was indicated by a reduction in counts per minute.

[3] = test system: human PBMC; experiment: ConA mitogen-stimulated proliferation of human PBMC ([3H]-thymidine incorporation); type: cell-based; conditions: FIG. 2
Method: II. ConA Mitogen-Stimulated Proliferation of Human PBMC
Blood specimens were obtained with consent from healthy human volunteers. Human peripheral blood mononuclear cells (PBMC) were isolated from heparinised whole blood by buoyant density centrifugation over Histopaque 1077 (Sigma, Poole, UK) at 600 g for 20 minutes. PBMC harvested from the ‘buffy’ layers were washed twice with RPMI 1640 medium and resuspended in CTCM. HSL compounds were tested at similar dilutions as for murine splenocytes in 200 μl of CTCM, containing 1 μg/ml of ConA and 100,000 PBMC. Human PBMC were incubated for 48 h at 37° C. in 5% CO2-air, followed by pulsing with 0.25 μCi [^3H]-thymidine (see above). After a further incubation of 24 h cells were harvested onto fibreglass filters and then counted in the presence of MicroScint-O with the Packard TopCount.
Concanavalin induced cell proliferation of human peripheral blood mononuclear cells (PBMC) was tracked, as described in I above, by a measurement of counts per minute using the scintillation counter. The inhibitory effect of an HSL compound being tested on cell proliferation was indicated by a reduction in counts per minute.
Columns B, C and D represent different sources of human PBMC samples used.

[4] = test system: murine spleen cells; conditions: literature report; cited from earlier work
[5] = test system: TNF-a production by LPS-stimulated adherent murine peritoneal macrophages; conditions: literature report; cited from earlier work

CCCC(=O)CC(=O)N[C@H]1CCOC1=O [OHHL, N-(3-oxohexanoyl)-L-homoserine lactone]
effect on LPS induced TNF-α secretion by human PBMC [1]: difference in activity between OHHL and OdDHL is marked

CCCCCC(=O)CC(=O)N[C@H]1CCOC1=O [OOHL, N-(3-oxooctanoyl)-L-homoserine lactone]
effect on ConA induced splenocyte proliferation (cpm vs concentration) [2]: failed to inhibit proliferation

N-(3-Hydroxy-9-tetradecenoyl)-L-homoserine lactone [Example 24]
IC50 ([2]; Experiment I, ConA 1 μg/ml, 100,000 spleen cells, read-out: IC50, inhibition of ConA induced murine splenocyte proliferation (column A)): 15 µM

CCCCCCCCCCCC(=O)CC(=O)N[C@H]1CCOC1=O [Example 11, N-(3-Oxotetradecanoyl)-L-homoserine lactone]
effect on proliferation of human PBMC stimulated with Concanavalin A (cpm vs concentration) [3]: inhibited proliferation of human PBMC | effect on LPS induced TNF-α secretion by human PBMC [1]: inhibited the secretion of the T helper 1-supporting cytokine TNF-α

CCCCCCCCCC(=O)CC(=O)N[C@H]1CCOC1=O [Example 6, N-(3-Oxododecanoyl)-L-homoserine lactone]
effect on concavalin A mitogen stimulated proliferation of murine spleen cells [4]: inhibiting | effect on proliferation of human PBMC stimulated with Concanavalin A (cpm vs concentration) [3]: inhibited proliferation of human PBMC | effect on LPS induced TNF-α secretion by human PBMC [1]: inhibited the secretion of the T helper 1-supporting cytokine TNF-α | effect on TNF-a production by LPS-stimulated adherent murine peritoneal macrophages [5]: inhibiting | effect on ConA induced splenocyte proliferation (cpm vs concentration) [2]: inhibits splenocyte proliferation
